Data set [1] has as its system Staphylococcus Aureus ATCC 25923. Kind of data set: Colourimetric enzymatic assays in loaded capillaries. Particulars: overnight at 37° C.; substrate per capillary from Table 4, 500 mg/mL; yellow = positive reaction. Format: cell-based. How it is done: (§1) An experiment was conducted to test a combination of sugar fermentation and enzymatic assays for the specific identification of bacteria. Individual 200 micron internal diameter capillaries coated with cross-linked HMW PVA were individually loaded with different reagents to perform a combination of colourimetric sugar fermentation and enzymatic assays as shown in Table 4. [table] […] Staphylococcus Epidermidis ATCC 12228 or Staphylococcus Saprophyticus ATCC 15305 resuspended in Microbatch Staph 12 S suspending media. The strips were incubated overnight at 37° C., and positive/negative identification of assays on individual capillaries was performed by imaging the strips with CCD camera. Enzyme detection: enzymatic substrates are normally colourless. If bacteria have the targeted enzymes, the substrates will be hydrolysed, releasing compounds that will produce a yellow colour indicating a positive reaction.

For data set [2] the test system is unchanged. Kind of data set: Colourimetric fermentation assays in loaded capillaries. Format: cell-based. The following applies: overnight at 37° C.; reagent per capillary from Table 4; orange to yellow = fermentation, orange to purple = arginine/urea degradation. How it is done:
(§2) An experiment was conducted to test a combination of sugar fermentation and enzymatic assays for the specific identification of bacteria. Individual 200 micron internal diameter capillaries coated with cross-linked HMW PVA were individually loaded with different reagents to perform a combination of colourimetric sugar fermentation and enzymatic assays as shown in Table 4. [table] […] Staphylococcus Epidermidis ATCC 12228 or Staphylococcus Saprophyticus ATCC 15305 resuspended in Microbatch Staph 12 S suspending media. The strips were incubated overnight at 37° C., and positive/negative identification of assays on individual capillaries was performed by imaging the strips with CCD camera. Sugar Fermentation: if a sugar is fermented, bacteria will produce acid end products and the pH of the medium will drop. The media contains a pH indicator to indicate acid production. A positive test for sugar fermentation consists of a colour change from orange to yellow, indicating a pH change to acidic. Arginine and Urea degradation (detection of Arginine dihydrolase/Urease): when arginine or urea are present, the pH of the medium rises. Accordingly, a positive test for detection of arginine dihydrolase or urease consists of a colour change from orange to purple indicating a pH change to alkaline.

The test system of data set [3] is Staphylococcus Saprophyticus ATCC 15305. The data set is described as above. The following applies: overnight at 37° C.; reagent per capillary from Table 4; orange to yellow = fermentation, orange to purple = arginine/urea degradation. Format: cell-based. How it is done:
as §2

For data set [4] the test system is unchanged. In words: Colourimetric enzymatic assays in loaded capillaries. Type of data set: cell-based. Particulars: overnight at 37° C.; substrate per capillary from Table 4, 500 mg/mL; yellow = positive reaction. How it is done: as §1
Data set [5] in a line: ONPG released into water from strips with different hydrophilic coatings. The following applies: loaded 150 g/L, 5 minute. Type of data set: physicochemical. As to the method:
The polymer solutions were then removed from the microcapillary film and the film dried by repeatedly aspirating air through the film strip using a syringe. An FEP microcapillary film coated with cross-linked PVA was used as a control. 8 cm lengths of each polymer coated film were then loaded with ONPG reagent by dipping the film into a 150 g/L ONPG solution. After a 5 minute incubation, the ONPG solution was removed and capillaries were dried using a syringe. The test films were then dipped into water, and the amount of ONPG reagent released into the water measured by a colorimetric endpoint determination using beta-galactosidase enzyme. With the cross-linked PVA coated test strips, 7.8 mg/ml ONPG was released, with gelatine coated test strips 7.2 mg/ml ONPG was released, and with HPMC coated test strips 21.5 mg/ml ONPG was released.

The test system of data set [6] is E. coli (ATCC accession number: 25922). Kind of data set: ONPG assay in 96 well-plates (comparison). Type of data set: cell-based. Particulars: ONPG 1 mg/ml, overnight incubation. How it is done: (§3) A 10 bore FEP microcapillary film was internally coated with cross-linked PVA. Test microcapillary film was prepared by first loading the capillaries with ONPG by filling the capillaries with a 150 mg·mL^−1 ONPG substrate solution in DMF and incubating for 5 minutes. The substrate solution was then removed and the microcapillary film air dried using a syringe to pass air repeatedly through the capillaries. Seven test strips were cut from this ONPG loaded microcapillary film and dipped into one of 7 different aqueous samples. These comprised water (1); sterile Luria-Bertani lysogeny broth (LB) media (2); a 0.1 U/μl solution of β-galactosidase enzyme (3); an overnight culture of E. coli (ATCC accession number: 25922) suspended in LB (4); an overnight culture of Salmonella typhimurium (strain SL3261) suspended in LB (5); an overnight culture of E. coli suspended in a phosphate buffer saline PBS (6); an overnight culture of S. typhimurium suspended in PBS (7). Negative control test strips consisting of PVA coated cross-linked PVA but not loaded with ONPG were dipped into the same samples (referred hereafter as no substrate). As a comparison, similar assays were also performed in 96 well-plates with ONPG substrate solution (final concentration 1 mg·ml^−1) added to the different samples in a final volume of 100 μl.

Data set [7] deals with Salmonella typhimurium (strain SL3261). In words: ONPG assay in 96 well-plates (comparison). The following applies: ONPG 1 mg/ml, overnight incubation. Type of data set: cell-based. As to the method:
as §3

Data set [8] can be described thus: ONPG loaded in strips, determined by dipping into beta-galactosidase solution, absorbance at 420 nm. Type of data set: physicochemical. Particulars: loaded 5 minutes with 150 mg/ml in DMF; cross-linked PVA; 1 hour with beta-galactosidase 0.2 U/μL. How it is done: Secondly, the concentration of loaded ONPG was determined inside the capillary film by dipping an FEP microcapillary film coated with cross-linked PVA, and loaded for 5 minutes with 150 mg/ml ONPG dissolved in DMF, into aqueous solutions of beta-galactosidase enzyme (at 0.2 U/μL). The solution was drawn up into test strips, and incubated for 1 hour to allow complete enzymatic conversion of the loaded ONPG. Subsequently, solution was removed from MCF test strips using a syringe and absorbance read using a microplate reader at 420 nm, and absorbance compared to a calibration curve of known concentrations of enzymatically converted ONPG.

The subject of data set [9] is E. coli (ATCC accession number: 25922). In words: ONPG loaded test strips dipped into bacterial culture, yellow colour. Particulars: IPTG-cultured (1 mM, 3 hours); 1 hour incubation at 37 degrees C. Type of data set: cell-based. How it is done:
as §3, with “μl. […]” for “μl.”

The test system of data set [10] is Salmonella typhimurium (strain SL3261). The data set is described as above. Type of data set: cell-based. The following applies: IPTG-cultured (1 mM, 3 hours); 1 hour incubation at 37 degrees C. How it is done: as §3, with “μl. […]” for “μl.”
Data set [11] in a line: ONPG released into water from loaded cross-linked PVA coated strips, enzymatic endpoint analysis at 420 nm. Format: physicochemical. Particulars: 1 hour, 60 mm strips. As to the method:
Reagent loading and release from the hydrophilic layer was quantified using a fluorescent dye and colorimetric enzyme substrates. For this purpose, an FEP microcapillary film was coated with cross-linked PVA and loaded with two assay reagents, the enzymatic substrate ortho-nitrophenyl-β-galactoside (ONPG) which produces a yellow colour in the presence of beta-galactosidase, and the fluorescent dye fluorescein. Loading was performed by incubation with a water or dimethylformamide (DMF)-based reagent solution for between 5 minutes and 2 h, and subsequent removal of the loading solution using a syringe, followed by air drying of the capillaries by repeated aspiration of air through the film using a syringe. Following loading of the capillaries, the amount of reagent loaded was quantified using three different methods.
The water taken up was then removed using a syringe and ONPG concentration measured by enzymatic endpoint analysis in a microwell plate well through the addition of an excess of beta-galactosidase enzyme and monitoring absorbance at 420 nm using a microwell plate reader. Released concentrations were determined by comparison of absorbance with a calibration curve of known concentrations of ONPG.

Data set [12] deals with Staphylococcus Epidermidis ATCC 12228. Kind of data set: Colourimetric fermentation assays in loaded capillaries. Type of data set: cell-based. The following applies: overnight at 37° C.; reagent per capillary from Table 4; orange to yellow = fermentation, orange to purple = arginine/urea degradation. As to the method:
as §2

For data set [13] the test system is unchanged. In words: Colourimetric enzymatic assays in loaded capillaries. Type of data set: cell-based. The following applies: overnight at 37° C.; substrate per capillary from Table 4, 500 mg/mL; yellow = positive reaction. As to the method: as §1
For data set [14], the system named is Salmonella typhimurium. In words: Sugar fermentation in sugar loaded test strips with Phenol Red Broth. Type of data set: cell-based. The following applies: sugar loaded from 1 g/L solution; 1 h at 37 degrees C; yellow = reduction in pH. As to the method:
(§4) The ability of bacteria to ferment specific sugars is also frequently used to distinguish similar species of bacteria. For example, E. coli are able to ferment lactose and glucose and produce acid when they are incubated in the presence of either of these sugars.
(§5) A 10 bore FEP microcapillary film was internally coated with cross-linked PVA. Test microcapillary film was prepared by first loading the capillaries with either glucose or lactose by filling the capillaries with a 1 g/L solution in water and incubating for 5 minutes. The sugar solutions were then removed and the microcapillary film air dried using a syringe to pass air repeatedly through the capillaries. Three test strips were cut from each of the glucose or lactose loaded microcapillary film and dipped into one of 3 different aqueous samples. The first sample was a control sample that contained no bacteria. The second sample contained a suspension of E. coli. The third sample contained a suspension of Salmonella typhimurium. All three aqueous samples also contained Phenol Red Broth (Casein peptone 1 g/L; NaCl 0.5 g/L; Phenol Red 1 g/L). The samples all started out with a pH of 7 and were bright red in colour. When dipped, each aqueous sample was rapidly drawn up into the test strips, and the microcapillaries were clearly bright red in colour due to the Phenol Red indicator dye in the sample. […]

Data set [15] relates to E. coli. The data set is described as above. Type of data set: cell-based. Particulars: sugar loaded from 1 g/L solution; 1 h at 37 degrees C; yellow = reduction in pH. As to the method:
as §4, §5

As to `O=[N+]([O-])c1ccc(OP(=O)(O)O)cc1` [4-Nitrophenyl phosphate], the “colour, enzymatic assays” value in data set [1] is on record as “Y”.

For `OC[C@H]1O[C@H](O[C@H]2O[C@H](CO)[C@@H](O)[C@H](O)[C@H]2O)[C@H](O)[C@@H](O)[C@@H]1O` [Trehalose], the “colour, fermentation assays” value in [2] and in data set [3] was “Y” in each case.

`O=[N+]([O-])c1ccc(O[C@@H]2O[C@H](CO)[C@H](O)[C@H](O)[C@H]2O)cc1` [4-Nitrophenyl β-D-galacto-pyranoside]: the “colour, enzymatic assays” value in data set [4] was “Y”.

`N=C(N)NCCC[C@H](N)C(=O)O` [Arginine]: the “colour, fermentation assays” value in [2] is reported as “O/P”.

With `O=[N+]([O-])c1ccccc1O[C@@H]1O[C@H](CO)[C@H](O)[C@H](O)[C@H]1O` [ONPG, ortho-nitrophenyl-β-galactoside], the results for the ONPG released in data set [5] (HPMC coated test strips), in data set [5] (cross-linked PVA coated test strips) and in [5] (gelatine coated test strips) were 21.5 mg/mL, 7.8 mg/mL and 7.2 mg/mL, respectively. Further, the figures for the colour of wells result in [6] and in [7] were “turned yellow” and “E. coli but not S. typhimurium suspensions turned yellow”, respectively. Further, the “average concentration loaded within test strips” value in data set [8] worked out at 3.4 mg/mL. The “colour of ONPG-loaded test strips” value is given as “a yellow colour was observed” in data set [9] and “no yellow colour was observed” in [10]. Also, the “Released Concentration” value in [11] (Loading concentration 0.5 mg/ml In Water) came out at 0.07 mg/mL; in data set [11] (Loading concentration 1.0 mg/ml In Water) it was 0.01 mg/mL; in data set [11] (Loading concentration 5.0 mg/ml In Water), 0.06 mg/mL; in data set [11] (Loading concentration 150.0 mg/ml In DMF), 4.67 mg/mL.

As to `OC[C@@H](O)[C@@H](O)[C@H](O)[C@H](O)CO` [Mannitol], the “colour, fermentation assays” value in [2] and in [3] was “Y” each time.

As for `OC[C@H]1O[C@H](O[C@H]2[C@H](O)[C@@H](O)[C@H](O)O[C@@H]2CO)[C@H](O)[C@@H](O)[C@@H]1O` [Maltose], the “colour, fermentation assays” value in data set [2], in [12] and in data set [3] was “Y” in each case.

Turning to `CC(=O)N[C@H]1C(O)O[C@H](CO)[C@@H](O)[C@@H]1O` (stereo partly drawn) [N-Acetyl Glucosamine], in [2], the “colour, fermentation assays” value is “Y”.

As for `O=C(O)[C@H]1O[C@@H](Oc2ccc([N+](=O)[O-])cc2)[C@H](O)[C@@H](O)[C@@H]1O` [4-Nitrophenyl β-D-glucuronide], the “colour, enzymatic assays” value in data set [1] and in data set [13] was “Y” each time.

For the compound `OC[C@H]1O[C@@](CO)(O[C@H]2O[C@H](CO)[C@@H](O)[C@H](O)[C@H]2O)[C@@H](O)[C@@H]1O` [Sucrose], the “colour, fermentation assays” value in [2], in [12] and in [3] was “Y” each time.

On to `OC[C@H]1O[C@@H](O[C@H]2[C@H](O)[C@@H](O)C(O)O[C@@H]2CO)[C@H](O)[C@@H](O)[C@H]1O` (stereo partly drawn) [lactose], for which the “colour of sugar loaded test strips (Phenol Red)” value in data set [14] is “remained bright red”; in data set [15], “turned yellow”.

The values are drawn from patent US20180021773A1, “ASSAY DEVICES, METHODS FOR CARRYING OUT ASSAYS, ASSAY KITS AND METHOD FOR MANUFACTURING ASSAY DEVICES” (Loughborough University, priority 2014, published 2018).
